Where “and” joins values, the source holds several entries; their conditions need not be identical. Identical values can stand only once.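 Growth conditions: 96-well plates. Treatment: test compound, 48 hours, 5 concentrations. Analysis: linear interpolation between bracketing concentrations; unreached endpoints set to highest concentration. GI50: concentration for 50% inhibition of growth. The concentration for full growth arrest is given as TGI.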 Where a SMILES comes first, the peptide text is derived from it. [ ]: non-standard residue; d: D form. The star is where a group is joined. ξ: configuration not given here. 4Abz = Nc1ccc(C(=O)O)cc1; ξL = CC(C)CC(N)C(=O)O; NHOH = ON*
Key:
Assay in all cases: NCI tumour cell line growth inhibition, 48 h
NCI-H460 lung = test system: NCI-H460 lung
HCT-116 colon = test system: HCT-116 colon
OVCAR-3 ovarian = test system: OVCAR-3 ovarian
A549 NSCLC = test system: A549 NSCLC
TK-10 renal = test system: TK-10 renal
ACHN renal = test system: ACHN renal
SW-620 colon = test system: SW-620 colon
SK-MEL-5 melanoma = test system: SK-MEL-5 melanoma
A498 renal = test system: A498 renal
SN12C renal = test system: SN12C renal

Compound | TGI (NCI-H460 lung) | TGI (HCT-116 colon) | TGI (OVCAR-3 ovarian) | TGI (A549 NSCLC) | TGI (TK-10 renal) | TGI (ACHN renal) | TGI (SW-620 colon) | TGI (SK-MEL-5 melanoma) | TGI (A498 renal) | GI50 (NCI-H460 lung) | GI50 (OVCAR-3 ovarian) | GI50 (A549 NSCLC) | GI50 (TK-10 renal) | GI50 (ACHN renal) | GI50 (SW-620 colon) | GI50 (SK-MEL-5 melanoma) | GI50 (HCT-116 colon) | GI50 (SN12C renal) | TGI (SN12C renal) | GI50 (A498 renal)
COc1ccc(/C=N\N2C(=O)Cc3ccccc32)cc1 | > 100 µM | > 100 µM | > 100 µM | > 100 µM | > 100 µM | > 100 µM | > 100 µM | > 100 µM | > 100 µM | – | – | – | – | – | – | – | – | – | – | –
COc1ccc(-c2ccc(/C=N/n3cnn(CN4CCN(C)CC4)c3=S)o2)c([N+](=O)[O-])c1 | > 100 µM | – | 66.9 µM | > 100 µM | > 100 µM | 70.5 µM | > 100 µM | 62.7 µM | – | 35.2 µM | 26.7 µM | 39.5 µM | 36.4 µM | 30.1 µM | 31.6 µM | 23.9 µM | – | – | – | –
CC(C)CC(NC(=O)[C@@H]1CCCN1C(=O)CNC(=O)c1ccc(N)cc1)C(=O)N[C@H](C)C(=O)NO (stereo partly specified) (H-[4Abz]GP[ξL][dA]-{NHOH}) | > 100 µM | > 100 µM | > 100 µM | > 100 µM | > 100 µM | > 100 µM | > 100 µM | > 100 µM | – | > 100 µM | > 100 µM | > 100 µM | > 100 µM | > 100 µM | > 100 µM | > 100 µM | > 100 µM | – | – | –
O=C(CCCCCn1c2ccccc2c2c3c(c4c5ccccc5[nH]c4c21)C(=O)N(O)C3=O)N1CCOCC1 | 4.69 µM | – | – | 24 µM | 5.72 µM | – | 6.02 µM | 3.06 µM | 2.7 µM | 2.16 µM | – | 4.22 µM | 2.03 µM | – | 2.12 µM | 1.64 µM | – | 3.37 µM | > 100 µM | 1.29 µM
Cc1cc(C)c(-c2noc(-c3ccc(Cl)cc3)c2C2=NCCN2)c(C)c1 | 32.1 µM | 64.5 µM | 44.7 µM | > 100 µM | – | > 100 µM | > 100 µM | 24 µM | – | – | – | – | – | – | – | – | – | – | 45.5 µM | –
Cn1c(=O)c(C2c3ccccc3Oc3c2c(=O)n(C)c2ccccc32)c(O)c2ccccc21 (stereo unspecified) | > 100 µM | > 100 µM | > 100 µM | > 100 µM | 83.8 µM | > 100 µM | > 100 µM | > 100 µM | – | – | – | – | – | – | – | – | – | – | > 100 µM | –
COc1ccc(OC)c(-c2cc(-c3ccc(Cl)cc3)nn2-c2ccc(S(N)(=O)=O)cc2)c1 | 93 µM | – | 39.8 µM | 51.9 µM | 22.7 µM | – | > 100 µM | 35.4 µM | 29.7 µM | 10.6 µM | 22.1 µM | 7.84 µM | 6.56 µM | – | 4.29 µM | 14.5 µM | – | 14.5 µM | 28.2 µM | 13.9 µM
O=C1C=Cc2cc3ccccc3c3cccc1c23 | 11.6 µM | > 100 µM | 19 µM | 22.8 µM | 42.3 µM | 7.39 µM | 72.9 µM | 5.87 µM | – | 3.37 µM | 3.9 µM | 1.43 µM | 9.55 µM | 2.06 µM | 5.22 µM | 2.73 µM | 3.16 µM | 2.71 µM | 11.3 µM | –
COc1ccccc1NC(=O)CC(=O)NNCC(=O)Nc1nc(-c2ccccc2)cs1 | > 100 µM | > 100 µM | > 100 µM | > 100 µM | > 100 µM | – | > 100 µM | > 100 µM | – | – | – | – | – | – | – | – | – | – | > 100 µM | –
COC(=O)C(=O)C(C(=O)C(=O)Nc1ccc(Cl)cc1Cl)c1nc2ccc(Cl)cc2[nH]c1=O (stereo unspecified) | > 100 µM | > 100 µM | > 100 µM | > 100 µM | > 100 µM | > 100 µM | > 100 µM | > 100 µM | – | – | – | – | – | – | – | – | – | – | > 100 µM | –
N#CC1(Cc2ccccc2Cl)c2ccccc2C=CN1C(=O)c1ccccc1 (stereo unspecified) | – | > 100 µM | > 100 µM | > 100 µM | > 100 µM | > 100 µM | > 100 µM | > 100 µM | > 100 µM | – | – | – | – | – | – | – | – | – | > 100 µM | –
COC(=O)C1=C(O)C(C(=O)OC)[C@@]2(O)[C@@H](C(=O)OC)C(c3ccc(OC(=O)C(Cc4ccccc4)NC(C)=O)cc3)C[C@@H]1[C@@H]2C(=O)OC (stereo partly specified) | > 100 µM | 45.1 µM | – | 57.5 µM | 44.1 µM | – | > 100 µM | 39.3 µM | 62.9 µM | 20.5 µM | – | 20.6 µM | 18.5 µM | – | 29.7 µM | 18 µM | 20.6 µM | 22.6 µM | 62.1 µM | 24.5 µM
CC(C)CCC[C@@H](C)C1CCC2[C@@H]3CC=C4C[C@@H](OC(=O)CCC(=O)NCC[N+](C)(C)CCCS(=O)(=O)[O-])CC[C@]4(C)C3CC[C@@]21C (stereo partly specified) | 30.9 µM | 63.1 µM | 34.5 µM | 37.8 µM | – | 53.9 µM | 33.8 µM | – | – | – | – | – | – | – | – | – | – | – | 38.2 µM | –
C=CC[n+]1c(/C=C2\Sc3ccccc3N2C)sc(-c2ccccc2)c1-c1ccccc1 | 11.4 µM | 11.5 µM | – | 11 µM | 3.35 µM | 10.2 µM | 13.3 µM | 0.32 µM | 2.32 µM | 0.284 µM | – | 0.339 µM | 0.307 µM | 1.7 µM | 0.366 µM | 0.173 µM | 0.36 µM | 0.298 µM | 1.47 µM | 0.264 µM
CCOC(=O)C(=C=Cc1cccs1)C(=O)c1ccccc1 | 46 µM | 27.7 µM | – | 45.5 µM | 28.5 µM | 33.3 µM | 31.9 µM | 10.5 µM | 35.5 µM | – | – | – | – | – | – | – | – | – | 29.3 µM | –
CC(C)n1c2c(c3ccccc3c1=O)C(=O)c1ccccc1-2 | – | > 100 µM | > 100 µM | > 100 µM | > 100 µM | – | > 100 µM | > 100 µM | > 100 µM | – | – | – | – | – | – | – | – | – | > 100 µM | –
Nc1ncnc2c1ncn2C1OC(CO)C(O)C1O (stereo unspecified) | 181 µM and 32.2 µM | > 450 µM | – | > 388 µM | > 100 µM | > 100 µM and 96.8 µM | > 450 µM | > 450 µM | > 100 µM | 4.23 µM | – | 22.3 µM | 41.1 µM | 30.4 µM | 19.3 µM | > 100 µM and > 450 µM and 46.2 µM | 7.58 µM | 16 µM | > 100 µM and 393 µM and 97.6 µM | 93.2 µM and 43.5 µM and 55.1 µM
